Measurements from patent publication US8673864B2, “Mangiferin-berberine salt, manufacturing method and use thereof” (Hainan Deze Drug Research Co., Ltd., priority 2009, dated 2014).

Experiments:
ACC = assay: Phosphorylation of ACC in L6 cells (Western blot, phospho-ACC ser79); format: cell-based, rat; settings: 1.25-5 μmol/L, 3 h, dose-dependent
Experimental: (§1) Mangiferin-berberine salt that is obtained by the method of embodiments as above dissolves in DMSO. Before use it is diluted by culture medium or HBS. The ultimate concentration of DMSO is less than 0.2%.
(§2) The rat L6 cell line was obtained from the ATCC. HG-DMEM was from GIBCO™. Fetal bovine serum (FBS) was purchased from Hyclone. Anti-AMPK, anti-ACC, antiphospho-AMPK (Thr172), antiphospho-ACC (ser79) polyclonal antibodies were from Cell Signal Technology.
(§3) L6 cells were grown in HG-DMEM containing 10% (v/v) FBS, 100 units/ml penicillin and 100 U/ml streptomycin in a humidified atmosphere of 5% CO2 at 37° C. When the cells covered 60%, the medium was switched to HG-DMEM with 2% FBS and the culture medium was replaced every two days until that the cells covered about 90%.
(§4) Cells in 6-well plates were starved in serum-free HG-DMEM, and then samples were added into serum-free HG-DMEM; the concentration of DMSO is 0.2%. The samples incubated for 3 h in the cells. […]
(§5) Samples were electrophoresed on 10% SDS-polyacrylamide gels, and transferred to PVDF membranes under 100V and 1-2 h in the transmembrane instrument. Protein in the gel was transferred to […] under the state of half dry, and the band was determined by Ponceau S (Ponceau S). […]

[1] = tested on: human hepatoma cell line Bel-7402; assay: Chemosensitizing effect on tumor cells (MTT cytotoxicity); format: cell-based; settings: 72 h
Experimental: Mangiferin-berberine salt (BM) was obtained by the method of embodiments as above. Cisplatin (DDP), adriamycin (ADM) and taxol were purchased from the market. Samples were dissolved in DMSO.
DMSO group, BM group (20 μmol/L), DDP group (1 μmol/L), ADM group (1 μmol/L), TAXOL group (1 μmol/L), BM (20 μmol/L)+DDP (1 μmol/L) group, BM (20 μmol/L)+ADM (1 μmol/L) group, BM (20 μmol/L)+TAXOL (1 μmol/L) group.
In accordance with 10^3-10^4/well, cultured human hepatoma cell line Bel-7402 200 μl per well were inoculated into 96-well cell culture plate, the samples were added after 24 hours. For those groups which are composed of the two samples, after mangiferin-berberine salt and cells were cultured together for 3 h, DDP or ADM or TAXOL were added, cultured for 72 h. Finally cell toxicity was determined by tetrazolium salt reduction (MTT). Experiments were repeated twice.

TNF-α = assay: Serum TNF-α in rheumatoid arthritis rat (ELISA); format: in vivo, rats; settings: versus model group
Experimental: (§6) Wistar rats, female, 100±20 g. Acid-soluble Bovine-derived collagen type II (Collagen II) and Freund's incomplete adjuvant was purchased from Sigma. TNF-α kit was purchased from Nanjing Jiancheng Biological Engineering Institute.
(§7) The Acid-soluble Bovine-derived collagen type II (C II) with Freund's incomplete adjuvant, was made up to 2.5 mg/ml emulsion, Every rat was injected emulsion containing […] by intradermal in the right rear paw in order to inflame.
(§8) Normal rats group (control group, n=10); model rats group (n=10); mangiferin-berberine salt low dose group (10 mg/kg, n=10, BML); mangiferin-berberine salt middle dose group (20 mg/kg, n=10, BMM); mangiferin-berberine salt high dose group (40 mg/kg, n=10, BMH); Dexamethasone Sodium Phosphate group (0.1 mg/kg, Dexa, n=10).
(§9) Two weeks after primary immunization, test samples or vehicle control was given orally for 4 weeks. Normal and model rats group were given the saline of an equal volume.
4.2 Cytokines: The blood specimens were taken from femoral artery at the end of the experiment, and serum was extracted, then frozen. TNF-α was measured according to the instructions of ELISA kit.

[2] = Solubility of mangiferin-berberine salt in water; format: physicochemical
Experimental: Its chemical structure is as follows:
5 mg mangiferin-berberine salt powder which is weighed up accurately is put into 50 ml distilled water under 25° C.±2° C., the solution is shaken strongly 30 seconds every 5 minutes. There are solute particles in 30 minutes. The water solubility of mangiferin-berberine salt is less than 0.1 mg/ml. Mangiferin-berberine salt is hardly solubility substance in water.

[3] = Accelerated stability test, content by HPLC; format: physicochemical
Experimental: Put several parts of mangiferin-berberine salt into glass bottles, seal, set inside drug stability chamber, set accelerated testing conditions to: 40° C.±2° C./75% RH+5% RH. At 0 and 1 and 2 months, sample, determine the content of mangiferin-berberine salt by HPLC.

[4] = Solubility in different pH water (hydrochloric acid adjusted); format: physicochemical
Experimental: (§10) As the pH of human gastric juice is 1-3, the above properties of mangiferin-berberine salt can be well dissolved in gastric juice, which is very conducive to the absorption of drugs in the body. Any ratio mangiferin-berberine composition can not increase the solubility in the acidic water.
Take pure water; add hydrochloric acid to adjust pH to 1 and 3 and 5 separately. Take the water 50 ml of different pH; weigh up accurately 50 mg mangiferin-berberine salt powder, put into the 50 ml water as above, shake and observe dissolved phenomena.
Take the water 50 ml of different pH 1 and 3; weigh up accurately 100 mg mangiferin-berberine salt powder, put into the 50 ml water as above, shake and observed dissolved phenomena.
Take the water 50 ml of pH 1; weigh up accurately 200 mg mangiferin-berberine salt powder, put into the 50 ml water as above, shake and observed dissolved situation.
Take the water 50 ml of pH 1 for three copies; weigh up accurately 50 mg mangiferin and berberine composition powder (the molecular ratio of mangiferin and berberine is 1:1, 1:3, 1:5), put into the 50 ml water as above separately, shake and observed dissolved phenomena. The trace of the mangiferin and berberine compositions that include all ratios as above can dissolve.

rheumatoid arthritis rat = assay: Effect on rheumatoid arthritis rat (collagen type II model), foot swelling; format: in vivo, rats; settings: versus model group
Experimental: as §6, §7, §8, §9
Foot swelling: Measurement the volume of right hind foot by capillary enlarge measure method, calculated swelling growth percentage [(value after administration−value before administration)/value before administration]×100%.

KK-ay mice = assay: Effect on KK-ay mice (glucose, lipid, insulin, UAER, liver enzymes); format: in vivo; settings: 40 mg/kg orally for 30 days, versus model group
Experimental: Mangiferin-berberine salt was obtained by the method of examples as above. Mangiferin-berberine salt was suspended with 3‰ sodium carboxymethyl cellulose before use. Rosiglitazone hydrochloride was purchased from Zhejiang wanma pharmaceutical Co., Ltd.
KK-ay mice, 16 weeks age, male.
KK-ay mice group (n=10); mangiferin-berberine salt low dose group (20 mg/kg, n=10, BML); mangiferin-berberine salt middle dose group (40 mg/kg, n=10, BMM); mangiferin-berberine salt high dose group (80 mg/kg, n=10), BMH metformin group[500 mg/kg, n=10]. Test samples or vehicle control was given orally for 30 days. KK-ay mice group were given vehicle.
The blood specimens were taken at the end of the experiment. Plasma glucose (GLU, mmol/L), lipid [triglycerides (TG, mmol/L), total cholesterol (TC, mmol/L), low density lipoprotein (LDL, mmol/L), high density lipoprotein (HDL, mmol/L)], liver enzyme [ALT(U/L) and AST(U/L)] were determined using GF-D800 semi-auto chemist which was purchased from Shandong Gaomi Caihong Analytical Instrument Co., Ltd.
Insulin: Radioimmunoassays (RIA), γ counter counts. insulin RIA Kit was purchased from Shandong Weifang City three-dimensional (3V) Biological Company. Urinary albumin. Collected urine for 24 h by metabolic cages, and recorded the output of urine. Urine was centrifuged, supernatant was taken, it was saved at −80° C. Free urinary were collected weekly Monday 13:00 by tail raise reflection. Assay urinary albumin by competitive ELISA, calculate the urinary albumin excretion rate (urinary albumin excretion rate=urinary albumin concentration (mg/L)×urine volume (ml)/total collection time (minutes)=mg/min, UAER), the units of figure is mg/24 h.
The results have been calculated as mean±SD ( x±SD) and comparisons of the data have been done by t-test.

AMPK = assay: Activation of AMPK in L6 cells (Western blot, phospho-AMPK Thr172); format: cell-based, rat; settings: 1.25-5 μmol/L, 3 h, dose-dependent
Experimental: as §1, §2, §3, §4, §5

[5] = Precipitation of the acidic solutions at room temperature within 24 hours; format: physicochemical; settings: for precipitate on standing: room temperature, 12 hours
Experimental: as §10
Mark all above the mangiferin-berberine salt solutions, places them at room temperature, observe the phenomenon within 24 hours.

dementia rats = assay: Effect on Aβ1-40-induced dementia rats (Morris water maze); format: in vivo; settings: versus model group
Experimental: SD male rats, SPF, 250˜300 g, free drinking water and eating food, before the experiment in a lab environment adapted for 2-3d, the temperature of the laboratory was controlled at 25° C., relative humidity was 40%-80%.
Sham surgery rats group (control group, n=10) were injected the saline of an equal volume in the hippocampus; model rats group (n=10) were treated by Aβ1-40; mangiferin-berberine salt low dose group (20 mg/kg, n=10, BML); mangiferin-berberine salt middle dose group (40 mg/kg, n=10, BMM); mangiferin-berberine salt high dose group (80 mg/kg, n=10, BMH).
Test samples or vehicle control was given orally for 4 weeks, one week before modeled. Maze training period, administrated in 0.5 h before training.
Injected […] into the hippocampus of rats to establish animal model of AD. As follows: […]
Spatial learning and memory tests: Morris water maze method. Platform located in the northeast quadrant of the middle of the maze; the water level is 1.5 cm above the platform; the temperature of water was maintained at 19° C.˜20° C.; rats were continuously training for 5d, twice a day; we set the maximum swimming time of 70s, recorded the time that rats found the platform (latent period, EL) by stopwatch.

[6] = high dose (40 mg/kg) orally for 4 weeks
[7] = middle dose (20 mg/kg) orally for 4 weeks

With mangiferin-berberine salt the “phosphorylation of ACC” value (ACC) was “increases significantly”, the “cytotoxicity combined with ADM versus ADM alone” value ([1]; Bel-7402, BM 20 μmol/L 3 h before ADM 1 μmol/L) was “significantly higher” and the “cytotoxicity combined with DDP versus DDP alone” value ([1]; Bel-7402, BM 20 μmol/L 3 h before DDP 1 μmol/L) was “significantly higher”. For the same substance, the “cytotoxicity combined with TAXOL versus TAXOL alone” value ([1]; Bel-7402, BM 20 μmol/L 3 h before TAXOL 1 μmol/L) was “significantly higher”, the “secretion of cytokine TNF-α” value (TNF-α; [6]) was “significantly inhibited” and the “secretion of cytokine TNF-α” value (TNF-α; [7]) was “significantly inhibited”. For the same substance, the water solubility ([2]; 5 mg in 50 ml distilled water, 25° C.±2° C., 30 minutes) was “less than 0.1 mg/ml”, the “solubility in boiling water” value ([2]; boiling water) was “slightly soluble in boiling water” and the solubility in water ([2]; water) was “Almost insoluble in water”. For the same substance, the “content of mangiferin-berberine salt by HPLC” value ([3]; 40° C.±2° C./75% RH+5% RH, sealed glass bottles, 0, 1 and 2 months) was “do not significantly change”, the “shelf time at room temperature” value ([3]; suggested from the accelerated test) was > 1 year and the dissolved phenomena ([4]; 50 mg in 50 ml water, pH 1) was “dissolved rapidly in the water of pH 1 in a few seconds”. For the same substance, the dissolved phenomena ([4]; 50 mg in 50 ml water, pH 3) was “dissolved in the water of pH 3 in five minutes”, the dissolved phenomena ([4]; 50 mg in 50 ml water, pH 5) was “did not dissolve completely” and the dissolved phenomena ([4]; 100 mg in 50 ml water, pH 1) was “dissolved in the water of pH 1 in a minute”. The dissolved phenomena ([4]; 100 mg in 50 ml water, pH 3) was “did not dissolve completely”, the dissolved situation ([4]; 200 mg in 50 ml water, pH 1) was “can dissolve in the water of pH 1, but there is precipitation soon in the solution” and the “solubility in strong acid solution” value ([4]; strong acid solution, the smaller the pH, the better it dissolves) was “dissolves in strong acid solution”. For the same substance, the paw swelling (rheumatoid arthritis rat; [6]) was “significantly inhibited”, the paw swelling (rheumatoid arthritis rat; [7]) was “significantly inhibited” and the INS (KK-ay mice) was “significantly improves”. The ISI (KK-ay mice) was “significantly improves”, the UAER (KK-ay mice) was “significantly improves” and the blood glucose (KK-ay mice) was “significantly improves”. The lipid (KK-ay mice) was “significantly improves”, the liver enzymes (KK-ay mice) was “significantly improves” and the “phosphorylation of AMPK” value (AMPK) was “increases significantly”. The precipitate on standing ([5]; pH 1, 4 mg/ml) was “more precipitate”, the “precipitation in acid solution” value ([5]; pH 1-3, concentration below 2 mg/ml, within 12 hours) was “precipitation is only traces” and the “precipitation in acid solution” value ([5]; pH 1-3, concentration greater than 4 mg/ml) was “precipitates soon after it dissolves”. For the same substance, the precipitate on standing ([5]; pH 1 and 3, 1 mg/ml and 2 mg/ml) was “trace precipitate”, the “EL (latent period) of fifth day, Morris water maze” value (dementia rats; high dose (80 mg/kg) orally for 4 weeks) was “significantly reduced” and the “EL (latent period) of fifth day, Morris water maze” value (dementia rats; middle dose (40 mg/kg) orally for 4 weeks) was “significantly reduced”.
